Calls of active or inactive are those of the source.
Tests used:
[1] = P. falciparum Dd2 growth inhibitors, dose response, SYBR Green, cherry-picked samples (AID 1159567); assay type: functional, cell-based
[2] = HCT116 cell viability decrease, GSK3B pretreatment – CellTiter-Glo, IC50, dose response (AID 1117339); assay type: functional; conditions: HCT-116
[3] = SNU-C1 cell viability reduction, dose response, CellTiter-Glo luminescence (AID 1117323); assay type: functional, cell-based
[4] = CellTiter-Glo luminescence survival assay, SW480 colon tumor line, concentration-response curve, half-maximal inhibitory concentration (AID 1117338); assay type: functional
[5] = cytotoxicity toward HT-29 cells – cell-based, CellTiter-Glo luminescence, IC50, dose response (AID 1117330); assay type: functional
[6] = RKO cell viability reduction, dose response, CellTiter-Glo luminescence (AID 1117322); assay type: functional
[7] = Reduced DLD-1 viability, concentration-response, CellTiter-Glo luminescence (AID 1117352); assay type: functional
[8] = cytotoxicity toward HCT116 cells – cell-based, CellTiter-Glo luminescence, IC50, dose response (AID 1117332); assay type: functional; conditions: HCT-116
[9] = cytotoxicity toward Colo320 cells – cell-based, CellTiter-Glo luminescence, IC50, dose response (AID 1117334); assay type: functional; conditions: COLO 320
[10] = Trypanosoma cruzi growth suppression in host cells – NIH3T3 host cells, beta-gal luminescence, confirmation (AID 2044); assay type: functional, cell-based;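 further: intracellular parasites grown in NIH/3T3 mouse fibroblasts as host cells; luminescent beta-galactosidase reporter signal from transgenic T. cruzi replicating inside host cells; inhibitors lower the luminescence signal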
[11] = Luminescence Cell-Based Dose Confirmation HTS to Identify Activators of 5'UTR Stem-Loop Driven Alpha-Synuclein mRNA Translation in H4 Neuroglioblastoma Cells. [Related pubchem assays: 1829 (Project Summary), 1814 (Primary HTS)]; assay type: functional
H4 = experiment: Luminescence Cell-Based Dose Response HTS to Identify Activators of 5'UTR Stem-Loop Driven Prion Protein mRNA Translation in H4 Neuroglioblastoma Cells. [Related pubchem assays: 1829 (Project Summary), 1814 (Primary HTS)]; assay type: functional; conditions: Homo sapiens
[12] = Luminescence Cell-Based Dose Response HTS to Identify Activators of Luciferase Translation or Activity in H4 […] Cells. [Related pubchem assays: 1829 (Project Summary), 1814 (Primary HTS)]; assay type: functional
[13] = NIH3T3 cell viability loss – ATP luminescence, mouse fibroblasts, counter-screen, dose response (AID 2010); assay type: functional, cell-based; conditions: NIH3T3;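 further: cells exposed to compound for about 90 hours before reading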
cells [14] = experiment: cells
[15] = Luminescence Cell-Based Dose Response HTS to Identify Inhibitors of 5'UTR Stem-Loop Driven Prion Protein mRNA Translation in H4 Neuroglioblastoma Cells. [Related pubchem assays: 1827 (Project Summary), 1813 (Primary HTS)]; assay type: functional
[16] = fluconazole-exposed Candida albicans growth modulators – fluorescence, retest, confirmation (AID 2467); assay type: functional, cell-based
[17] = alpha-synuclein stem-loop luciferase translation blockers – H4 neuroglioma cells, luminescence, confirmation (AID 1988); assay type: functional, cell-based
[18] = luciferase reporter signal suppression in cells – H4 neuroglioma cells, luminescence, dose response (AID 1990); assay type: functional, cell-based
Ion channel NompC = Ion channel NompC (Danio rerio, UniProt Q7T1G6); experiment: Fluorescence counterscreen assay for TRPML3 agonists: dose response cell-based high-throughput screening assay to identify agonists of the transient receptor potential channel N1 (TRPN1). [Related pubchem assays: 1526, 1424, 1448 ]; assay type: functional
[19] = NIH-3T3 fibroblast cytotoxicity, dose response, cytotoxicity control, cell-based, fluorescence, Alamar Blue, secondary assay (AID 2327); assay type: functional;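 further: NIH-3T3 mouse fibroblasts cultured with fluconazole at 8 µg/mL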
Mucolipin-3 = target: T1, Mucolipin-3 (Homo sapiens, UniProt Q8TDD5); experiment: Dose response cell-based high-throughput screening assay for agonists of the transient receptor potential channel ML3 (TRPML3). [Related pubchem assays: 1526, 1424, 1448 ]; assay type: functional
T1 sequence (Q8TDD5 whole entry): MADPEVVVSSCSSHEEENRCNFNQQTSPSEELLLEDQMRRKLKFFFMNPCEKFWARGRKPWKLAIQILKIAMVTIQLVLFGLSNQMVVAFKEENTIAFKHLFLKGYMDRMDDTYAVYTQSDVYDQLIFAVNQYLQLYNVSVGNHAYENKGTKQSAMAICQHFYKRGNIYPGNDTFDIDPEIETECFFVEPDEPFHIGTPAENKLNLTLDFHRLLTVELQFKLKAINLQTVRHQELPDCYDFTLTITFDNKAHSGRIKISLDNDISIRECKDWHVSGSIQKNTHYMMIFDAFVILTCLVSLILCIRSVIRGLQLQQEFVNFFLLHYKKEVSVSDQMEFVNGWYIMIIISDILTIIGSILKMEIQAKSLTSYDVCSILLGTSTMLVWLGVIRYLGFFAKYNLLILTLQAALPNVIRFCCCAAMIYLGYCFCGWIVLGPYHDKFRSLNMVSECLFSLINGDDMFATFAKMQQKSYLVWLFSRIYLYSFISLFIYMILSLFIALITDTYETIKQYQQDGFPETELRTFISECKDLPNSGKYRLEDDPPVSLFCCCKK

[20] = Luminescence Cell-Based Dose Response to Identify Activators of Luciferase Translation or Activity in H4-C Neuroglioblastoma Cells. [Related pubchem assays: 1829 (Project Summary), 1814 (Primary HTS)]; assay type: functional
[21] = Luminescence Cell-Based Dose Confirmation to Identify Activators of 5'UTR Stem-Loop Driven Alpha-Synuclein mRNA Translation in H4 Neuroglioblastoma Cells. [Related pubchem assays: 1829 (Project Summary), 1814 (Primary HTS)]; assay type: functional
[22] = Luminescence Cell-Based Dose Response to Identify Activators of 5'UTR Stem-Loop Driven Prion Protein mRNA Translation in H4-C Neuroglioblastoma Cells. [Related pubchem assays: 1829 (Project Summary), 1814 (Primary HTS)]; assay type: functional
[23] = HPDE-C7 pancreatic duct cell viability loss – fluorescence, HTS (AID 430); assay type: functional, cell-based; conditions: Homo sapiens
[24] = viability loss of HPDE-C7K cells – cell-based, fluorescence, HTS, primary screen (AID 431); assay type: functional; conditions: Homo sapiens
[25] = viability loss in CEM21 cells – cell-based, CellTiter-Glo luminescence, cherry-picked, cytotoxicity control for viral fusion inhibitor project, dose response (AID 652042); assay type: functional;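 further: potency for signal decrease meaning cytotoxicity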
[26] = off-target signal loss in HeLa-CEM21 co-culture – HeLa F-luc CTL cells, cherry-picked, counter-screen for HIV-1 Env fusion inhibitor project, dose response (AID 652040); assay type: functional, cell-based;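 further: potency for signal decrease marking cytotoxic or nonspecific inhibition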
[27] = blockers of HIV-1 ZM109 envelope-driven cell-cell fusion – HeLa effector, CEM target cells, luciferase, cherry-pick, dose response (AID 652058); assay type: functional, cell-based;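 further: luciferase signal from HIV-1 Env mediated cell-cell fusion of effector and target cells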
[28] = target: T2, Heat shock factor protein 1 (Mus musculus, UniProt P38532); experiment: decrease of HSF1-responsive luciferase luminescence – cell-based, NIH3T3, dose retest, confirmation (AID 2382); assay type: functional;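 further: NIH3T3 fibroblasts with HSF1-driven luciferase reporter stressed by proteasome inhibitor MG132; luminescence from HSF1-driven luciferase expression after 8 hours of MG132 stress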
T2 sequence (P38532 whole entry): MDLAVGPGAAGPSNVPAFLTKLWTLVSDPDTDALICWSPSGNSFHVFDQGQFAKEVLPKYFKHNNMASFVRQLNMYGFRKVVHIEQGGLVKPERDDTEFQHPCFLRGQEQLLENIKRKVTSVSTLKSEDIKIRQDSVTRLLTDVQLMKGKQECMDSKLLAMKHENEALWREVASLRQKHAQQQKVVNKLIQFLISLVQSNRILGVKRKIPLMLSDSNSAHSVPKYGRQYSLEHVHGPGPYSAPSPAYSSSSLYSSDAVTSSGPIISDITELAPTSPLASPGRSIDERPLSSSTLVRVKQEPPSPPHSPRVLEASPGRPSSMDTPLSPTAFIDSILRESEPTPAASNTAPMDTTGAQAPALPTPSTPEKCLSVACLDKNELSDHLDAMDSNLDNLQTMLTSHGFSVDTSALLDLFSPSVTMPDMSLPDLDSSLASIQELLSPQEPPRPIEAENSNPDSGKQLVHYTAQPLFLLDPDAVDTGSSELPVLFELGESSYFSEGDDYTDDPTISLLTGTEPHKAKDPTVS

[29] = HIV-1 AD8 envelope cell-cell fusion blockers – cherry-pick, dose response (AID 652062); assay type: functional, cell-based;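 further: luciferase signal from cell-cell fusion driven by HIV-1 clade B AD8 Env; potency is for inhibitors of fusion seen as a drop in luminescence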
cells [30] = assay type: functional, cell-based
[31] = blockers of HIV-1 envelope-mediated cell-cell fusion – cherry-pick, dose response (AID 652057); assay type: functional, cell-based
cells [32] = assay type: functional, cell-based; remark: listed apart in the source

Chain of Ion channel NompC (Q7T1G6 whole entry): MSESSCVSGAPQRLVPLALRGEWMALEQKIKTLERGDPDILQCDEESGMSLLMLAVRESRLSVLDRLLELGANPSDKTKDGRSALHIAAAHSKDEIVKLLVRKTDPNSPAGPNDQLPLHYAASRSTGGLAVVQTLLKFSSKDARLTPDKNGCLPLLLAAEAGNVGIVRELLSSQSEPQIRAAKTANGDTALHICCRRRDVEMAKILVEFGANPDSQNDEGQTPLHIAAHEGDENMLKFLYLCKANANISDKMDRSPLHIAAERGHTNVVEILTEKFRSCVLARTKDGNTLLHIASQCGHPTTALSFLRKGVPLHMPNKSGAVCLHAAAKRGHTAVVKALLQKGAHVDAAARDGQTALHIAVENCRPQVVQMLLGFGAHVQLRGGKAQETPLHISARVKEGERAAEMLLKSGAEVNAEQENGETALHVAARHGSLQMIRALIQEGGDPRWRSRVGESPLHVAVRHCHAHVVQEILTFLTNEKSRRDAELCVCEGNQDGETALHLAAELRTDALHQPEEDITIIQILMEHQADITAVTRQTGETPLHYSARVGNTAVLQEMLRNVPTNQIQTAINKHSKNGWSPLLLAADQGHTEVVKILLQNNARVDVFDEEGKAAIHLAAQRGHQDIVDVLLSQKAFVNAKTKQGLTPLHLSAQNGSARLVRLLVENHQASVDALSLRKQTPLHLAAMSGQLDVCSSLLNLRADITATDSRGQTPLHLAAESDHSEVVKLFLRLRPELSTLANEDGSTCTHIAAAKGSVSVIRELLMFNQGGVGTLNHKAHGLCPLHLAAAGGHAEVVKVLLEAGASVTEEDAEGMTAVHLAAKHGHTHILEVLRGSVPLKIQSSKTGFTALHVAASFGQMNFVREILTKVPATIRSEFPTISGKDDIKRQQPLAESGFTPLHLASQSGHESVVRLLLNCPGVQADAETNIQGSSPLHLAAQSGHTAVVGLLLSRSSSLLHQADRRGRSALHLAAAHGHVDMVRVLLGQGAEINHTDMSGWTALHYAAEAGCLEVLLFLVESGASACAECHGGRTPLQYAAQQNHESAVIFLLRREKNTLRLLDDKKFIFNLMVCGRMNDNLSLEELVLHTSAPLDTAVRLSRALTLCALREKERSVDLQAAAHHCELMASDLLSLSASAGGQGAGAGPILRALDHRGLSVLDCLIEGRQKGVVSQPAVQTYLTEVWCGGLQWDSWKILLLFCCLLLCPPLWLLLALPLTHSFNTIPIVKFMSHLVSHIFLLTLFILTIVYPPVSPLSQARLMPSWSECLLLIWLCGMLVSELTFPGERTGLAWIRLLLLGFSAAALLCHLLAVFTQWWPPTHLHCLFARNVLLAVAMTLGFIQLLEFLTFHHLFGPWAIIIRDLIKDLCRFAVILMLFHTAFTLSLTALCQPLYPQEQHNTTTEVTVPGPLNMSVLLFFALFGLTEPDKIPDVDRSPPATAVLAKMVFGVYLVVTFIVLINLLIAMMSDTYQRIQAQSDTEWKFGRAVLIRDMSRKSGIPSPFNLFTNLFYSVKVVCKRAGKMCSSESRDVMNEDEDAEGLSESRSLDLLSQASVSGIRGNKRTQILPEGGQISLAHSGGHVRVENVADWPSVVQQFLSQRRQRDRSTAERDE

COc1ccc(CN2CC3(CCN(C(=O)c4ccccc4)CC3)c3c([nH]c4cc(OC)ccc34)[C@@H]2CO)cc1
AC50 [1]: 3 µM (active)

CCC1Nc2cc(Cl)c(S(N)(=O)=O)cc2S(=O)(=O)N1 (centres undefined) [ETHIAZIDE]
IC50 [2]: > 20 µM (inactive)
IC50 [3]: > 20 µM (inactive)
IC50 [4]: > 6.67 µM (inactive)
IC50 [5]: > 20 µM (inactive)
IC50 [6]: > 20 µM (inactive)
IC50 [7]: > 20 µM (inactive)
IC50 [8]: > 20 µM (inactive)
IC50 [9]: > 20 µM (inactive)

CN(C)CCN(C(=O)c1ccc2c(c1)OCCO2)c1nc2ccc(Cl)cc2s1
EC50 [10]: < 0.1 µM (active)
EC50 [11]: > 120 µM (not active)
EC50 (H4): > 120 µM (not active)
EC50 [12]: 15.6 µM (active)
EC50 [13]: > 60 µM (not active)
EC50 (cells [14]): 0.088 µM (active)

CN(C)c1ccc(C(=C2C=CC(=[N+](C)C)C=C2)c2ccc(N(C)C)cc2)cc1 [GENTIAN VIOLET]
IC50 [3]: 0.394 µM (active)
IC50 [4]: 0.528 µM (active)
IC50 [5]: 0.466 µM (active)
IC50 [6]: 0.994 µM (active)
IC50 [7]: 0.471 µM (active)
IC50 [8]: 0.514 µM (active)
IC50 [9]: 2.05 µM (active)

CCOc1ccc2c(c1)C(C)=CC(C)(C)N2S(=O)(=O)c1ccc(C)cc1
EC50 [15]: 0.147 µM (active)
EC50 [16]: > 38 µM (not active)
EC50 [17]: 0.497 µM (active)
EC50 [18]: 1.36 µM (active)
EC50 (Ion channel NompC): > 29.9 µM (not active)
EC50 [19]: > 160 µM (inactive)
EC50 (Mucolipin-3): > 29.9 µM (not active)

CC(=N)/C(C#N)=C(/O)CSc1nc2cc(C)ccc2[nH]1
EC50 [11]: 1.68 µM (active)
EC50 [20]: 0.296 µM (active)
EC50 [21]: 0.424 µM (active)
EC50 [12]: < 0.1 µM (active)
EC50 [22]: 0.321 µM (active)

COc1ccc(N(Cc2cc3cc(OC)ccc3nc2O)S(C)(=O)=O)cc1
EC50 [23]: > 20 µM (not active)
EC50 [24]: > 20 µM (not active)

CC1CN(c2oc(COc3ccc(Cl)cc3Cl)nc2C#N)CC(C)O1 (centres undefined)
EC50 [23]: > 20 µM (not active)
EC50 [24]: > 20 µM (not active)

COc1ccc2c3c(n(C)c2c1)[C@H](CO)N(Cc1ccccc1F)CC31CCN(CC2CC2)CC1
AC50 [1]: 3.46 µM (active)

COc1ccc(C(=O)c2ccccc2O)c(O)c1 [DIOXYBENZONE]
IC50 [4]: > 20 µM (inactive)
IC50 [5]: > 20 µM (inactive)
IC50 [6]: > 20 µM (inactive)
IC50 [7]: > 20 µM (inactive)
IC50 [8]: > 20 µM (inactive)
IC50 [9]: > 20 µM (inactive)

Cc1ccc(S(=O)(=O)N2CCN(C)CC2)c(C)c1N(C)S(=O)(=O)c1ccc(Cl)cc1
EC50 (Ion channel NompC): > 29.9 µM (not active)
EC50 (Mucolipin-3): 3.34 µM (active)

CCOC(=O)C1=C(NC(=S)NC(=O)c2ccccc2)c2ccccc2CC1(C)C
EC50 (Ion channel NompC): > 29.9 µM (not active)
EC50 (Mucolipin-3): 5.5 µM (active)

Cc1ccsc1C(=O)C1CCCN(Cc2cnn(C(C)C)c2)C1 (centres undefined)
EC50 [10]: < 0.1 µM (active)
EC50 [13]: > 60 µM (inconclusive)
EC50 (cells [14]): 0.01 µM (active)

COc1ccc2cc3c(N)nn(C(=O)Cc4c[nH]c5ccccc45)c3nc2c1
EC50 [15]: 23 µM (active)
AC50 [25]: 7.5 µM (active)
AC50 [26]: 0.512 µM (active)
AC50 [27]: 0.261 µM (active)
EC50 [17]: 11.5 µM (active)
EC50 [18]: < 0.1 µM (active)
EC50 [28]: 0.269 µM (active)
AC50 [29]: 0.563 µM (active)
EC50 (cells [30]): > 350 µM (not active)
AC50 [31]: 0.352 µM (active)
EC50 (cells [32]): > 350 µM (not active)

CCCS(=O)(=O)N1CCC(C(=O)NCCc2ccccc2)CC1
EC50 [23]: > 20 µM (not active)
EC50 [24]: > 20 µM (not active)

COc1cccc(CC2(CO)CCCN(Cc3cn(C)c4ccccc34)C2)c1 (centres undefined)
EC50 [10]: < 0.1 µM (active)
EC50 [13]: 20 µM (active)
EC50 (cells [14]): 0.051 µM (active)

CC1CCC(C(C)C)C(OC(=O)c2ccccc2O)C1 (centres undefined)
IC50 [2]: > 20 µM (inactive)
IC50 [3]: > 20 µM (inactive)
IC50 [4]: > 20 µM (inactive)
IC50 [5]: > 20 µM (inactive)
IC50 [6]: > 20 µM (inactive)
IC50 [7]: > 20 µM (inactive)
IC50 [8]: > 20 µM (inactive)
IC50 [9]: > 20 µM (inactive)

O=S(=O)(Cc1cc(Cl)nc(-c2ccccc2)n1)c1ccccc1
EC50 (Ion channel NompC): > 29.9 µM (not active)
EC50 (Mucolipin-3): 5.36 µM (active)

Cc1ccc(-c2csc(NC(=O)C3=COCCO3)n2)cc1C
EC50 [10]: 0.846 µM (active)
EC50 [20]: 0.301 µM (active)
EC50 [21]: 0.353 µM (active)
EC50 [12]: < 0.1 µM (inconclusive)
EC50 [13]: > 60 µM (not active)
EC50 [22]: 2.75 µM (active)

Reference: ChEMBL document CHEMBL1201862, “PubChem BioAssay data set” (2004)
